{
  "source": "paper PMC6592956",
  "about": "“Characterization of Porcine Hepatic and Intestinal Drug Metabolizing CYP450: Comparison with Human Orthologues from A Quantitative, Activity and Selectivity Perspective” (Scientific Reports, 2019)",
  "key": {"[1]": {"system": "porcine intestinal CYP450 enzymes", "conditions": "duodenum, jejunum, ileum", "description": "(§1) Intestinal microsomes were incubated as described above for hepatic microsomes. […] Each activity measurement (hepatic and intestinal) was performed in triplicate and data are present [..."}, "[2]": {"system": "hepatic CYP450 abundancies", "experiment": "Pearson correlation between hepatic CYP450 abundancies and probe activities"}, "porcine CYP450": {"system": "porcine CYP450", "conditions": "outcome of general decision tree, Figure 4"}, "[3]": {"system": "porcine intestinal CYP450 enzymes", "experiment": "in vitro", "conditions": "pig", "description": "as §1"}, "CYP1A [4]": {"system": "CYP1A", "conditions": "n = 8", "description": "(§2) The incubation times were derived from linearity experiments. […] Protein concentrations and time were chosen at the lowest possible value to allow reliable quantification, within the linear range of the biotransformation reaction.\n(§3) The activity data were fitted against the standard Michaelis-Menten equation (Eq. (1a), first term). For each profile, Eadie-Hofstee plots were derived to investigate involvement of more than one enzyme or deviation from normal Michaelis-Menten behaviour. If the Eadie-Hofstee plot was hyperbolic, the data was fitted against the Hill equation[60]. Km, Vmax and/or Hill coefficients were derived for each substrate and pig, in order to obtain the inter-individual variation.\n(§4) Stepwise linear regression, correlation analyses, and independent sample t-tests were performed with the SPSS® 24 software (IBM, New York, USA). Sex differences in hepatic protein abundances, Km, and Vmax values, were analyzed by an independent sample t-test. Normality was checked using the Shapiro Wilk test. If the Shapiro Wilk test statistic was significant, log transformation was used to calculate the t-statistic. Equality of variances was checked using the Levene’s test for equality of variances. The appropriate test statistic was used depending on the equality of variances."}, "CYP1A [5]": {"system": "CYP1A", "conditions": "n = 8", "remark": "listed apart in the source", "description": "as §2, §3, §4"}},
  "note": "Marks after values point to notes of the source that are not given here.",
  "data": [
    {"smiles": "O=c1ccc2ccccc2o1", "note": "[CM, coumarin]", "values": [
      {"measurement": "CM-hydroxylase activity in the intestine", "setting": "[1]", "result": "No CM-hydroxylase activity could be detected"},
      {"measurement": "Pearson's correlation coefficient, CM activity vs hepatic CYP2A19 abundance", "setting": "[2]; level 3 (CM 2.00 µM)", "result": 0.62},
      {"measurement": "Pearson's correlation coefficient, CM activity vs hepatic CYP2A19 abundance", "setting": "[2]; level 4 (CM 5.00 µM)", "result": "0.66*"},
      {"measurement": "Pearson's correlation coefficient, CM activity vs hepatic CYP2A19 abundance", "setting": "[2]; level 5 (CM 20.0 µM)", "result": "0.67*"},
      {"measurement": "Pearson's correlation coefficient, CM activity vs hepatic CYP2A19 abundance", "setting": "[2]; level 6 (CM 100 µM)", "result": "0.66*"},
      {"measurement": "Enzyme involvement: High affinity", "setting": "porcine CYP450", "result": "CYP2A19"}
    ]},
    {"smiles": "COc1ccc2c(c1)[C@]13CCCC[C@@H]1[C@H](C2)N(C)CC3", "note": "[DXM, Dextromethorphan]", "values": [
      {"measurement": "Km at 10 min", "setting": "[3]; Duodenum Km, duodenal microsomes, pool of 16 pigs, n=3, mean (SD)", "result": 31.5, "unit": "µM"},
      {"measurement": "Pearson's correlation coefficient, DXM activity vs hepatic CYP2C33 abundance", "setting": "[2]; level 1 (DXM 0.10 µM)", "result": 0.59},
      {"measurement": "Pearson's correlation coefficient, DXM activity vs hepatic CYP2E1 abundance", "setting": "[2]; level 1 (DXM 0.10 µM)", "result": 0.55},
      {"measurement": "Pearson's correlation coefficient, DXM activity vs hepatic CYP3A46 abundance", "setting": "[2]; level 1 (DXM 0.10 µM)", "result": 0.59},
      {"measurement": "Pearson's correlation coefficient, DXM activity vs hepatic CYP2C33 abundance", "setting": "[2]; level 2 (DXM 0.50 µM)", "result": "0.65*"},
      {"measurement": "Pearson's correlation coefficient, DXM activity vs hepatic CYP2D25 abundance", "setting": "[2]; level 2 (DXM 0.50 µM)", "result": 0.55},
      {"measurement": "Pearson's correlation coefficient, DXM activity vs hepatic CYP2E1 abundance", "setting": "[2]; level 2 (DXM 0.50 µM)", "result": 0.57},
      {"measurement": "Pearson's correlation coefficient, DXM activity vs hepatic CYP3A29 abundance", "setting": "[2]; level 2 (DXM 0.50 µM)", "result": 0.52},
      {"measurement": "Pearson's correlation coefficient, DXM activity vs hepatic CYP3A46 abundance", "setting": "[2]; level 2 (DXM 0.50 µM)", "result": "0.65*"},
      {"measurement": "Pearson's correlation coefficient, DXM activity vs hepatic CYP1A2 abundance", "setting": "[2]; level 3 (DXM 1.00 µM)", "result": 0.54},
      {"measurement": "Pearson's correlation coefficient, DXM activity vs hepatic CYP2C33 abundance", "setting": "[2]; level 3 (DXM 1.00 µM)", "result": "0.65*"},
      {"measurement": "Pearson's correlation coefficient, DXM activity vs hepatic CYP2D25 abundance", "setting": "[2]; level 3 (DXM 1.00 µM)", "result": 0.57},
      {"measurement": "Pearson's correlation coefficient, DXM activity vs hepatic CYP2E1 abundance", "setting": "[2]; level 3 (DXM 1.00 µM)", "result": 0.60},
      {"measurement": "Pearson's correlation coefficient, DXM activity vs hepatic CYP3A29 abundance", "setting": "[2]; level 3 (DXM 1.00 µM)", "result": 0.56},
      {"measurement": "Pearson's correlation coefficient, DXM activity vs hepatic CYP3A46 abundance", "setting": "[2]; level 3 (DXM 1.00 µM)", "result": "0.73*"},
      {"measurement": "Pearson's correlation coefficient, DXM activity vs hepatic CYP1A2 abundance", "setting": "[2]; level 4 (DXM 5.00 µM)", "result": 0.56},
      {"measurement": "Pearson's correlation coefficient, DXM activity vs hepatic CYP2C33 abundance", "setting": "[2]; level 4 (DXM 5.00 µM)", "result": "0.70*"},
      {"measurement": "Pearson's correlation coefficient, DXM activity vs hepatic CYP2D25 abundance", "setting": "[2]; level 4 (DXM 5.00 µM)", "result": "0.63*"},
      {"measurement": "Pearson's correlation coefficient, DXM activity vs hepatic CYP2E1 abundance", "setting": "[2]; level 4 (DXM 5.00 µM)", "result": 0.56},
      {"measurement": "Pearson's correlation coefficient, DXM activity vs hepatic CYP3A29 abundance", "setting": "[2]; level 4 (DXM 5.00 µM)", "result": 0.58},
      {"measurement": "Pearson's correlation coefficient, DXM activity vs hepatic CYP3A46 abundance", "setting": "[2]; level 4 (DXM 5.00 µM)", "result": "0.78*"},
      {"measurement": "Pearson's correlation coefficient, DXM activity vs hepatic CYP1A2 abundance", "setting": "[2]; level 5 (DXM 20.0 µM)", "result": 0.55},
      {"measurement": "Pearson's correlation coefficient, DXM activity vs hepatic CYP2C33 abundance", "setting": "[2]; level 5 (DXM 20.0 µM)", "result": "0.70*"},
      {"measurement": "Pearson's correlation coefficient, DXM activity vs hepatic CYP2D25 abundance", "setting": "[2]; level 5 (DXM 20.0 µM)", "result": "0.63*"},
      {"measurement": "Pearson's correlation coefficient, DXM activity vs hepatic CYP2E1 abundance", "setting": "[2]; level 5 (DXM 20.0 µM)", "result": 0.52},
      {"measurement": "Pearson's correlation coefficient, DXM activity vs hepatic CYP3A29 abundance", "setting": "[2]; level 5 (DXM 20.0 µM)", "result": 0.58},
      {"measurement": "Pearson's correlation coefficient, DXM activity vs hepatic CYP3A46 abundance", "setting": "[2]; level 5 (DXM 20.0 µM)", "result": "0.75*"},
      {"measurement": "Pearson's correlation coefficient, DXM activity vs hepatic CYP1A2 abundance", "setting": "[2]; level 6 (DXM 100 µM)", "result": 0.54},
      {"measurement": "Pearson's correlation coefficient, DXM activity vs hepatic CYP2C33 abundance", "setting": "[2]; level 6 (DXM 100 µM)", "result": "0.67*"},
      {"measurement": "Pearson's correlation coefficient, DXM activity vs hepatic CYP2D25 abundance", "setting": "[2]; level 6 (DXM 100 µM)", "result": "0.66*"},
      {"measurement": "Pearson's correlation coefficient, DXM activity vs hepatic CYP2E1 abundance", "setting": "[2]; level 6 (DXM 100 µM)", "result": 0.54},
      {"measurement": "Pearson's correlation coefficient, DXM activity vs hepatic CYP3A29 abundance", "setting": "[2]; level 6 (DXM 100 µM)", "result": 0.59},
      {"measurement": "Pearson's correlation coefficient, DXM activity vs hepatic CYP3A46 abundance", "setting": "[2]; level 6 (DXM 100 µM)", "result": "0.74*"},
      {"measurement": "Correlation (r) of CYP2D25 with DXM-O-demethylation", "setting": "[2]; range over concentration levels", "result": "0.55–0.66"},
      {"measurement": "Enzyme involvement: High affinity", "setting": "porcine CYP450", "result": "CYP2D25"},
      {"measurement": "Enzyme involvement: Low affinity", "setting": "porcine CYP450", "result": "CYP3A"}
    ]},
    {"smiles": "CCOc1ccc(NC(C)=O)cc1", "note": "[PH, Phenacetin]", "values": [
      {"measurement": "Km at 10 min", "setting": "[3]; duodenal microsomes", "result": 144, "unit": "µM"},
      {"measurement": "Km at 10 min", "setting": "[3]; ileal microsomes", "result": 189, "unit": "µM"},
      {"measurement": "Km at 10 min", "setting": "[3]; jejunal microsomes", "result": 182, "unit": "µM"},
      {"measurement": "Pearson's correlation coefficient, PH activity vs hepatic CYP3A46 abundance", "setting": "[2]; level 6 (PH 200 µM)", "result": 0.51}
    ]},
    {"smiles": "CCOc1ccc(NC(C)=O)cc1", "note": "[PH, phenacetin]", "values": [
      {"measurement": "log_Km, female", "setting": "CYP1A [4]", "result": "1,1345"},
      {"measurement": "log_Km, male", "setting": "CYP1A [5]", "result": "1,2876"}
    ]}
  ]
}
